# Counter-ions that a name gives are not always drawn.
# Columns and labels:
# Assay type in all cases: physicochemical
# [1] = Hygroscopicity study of crystal forms (Chinese Pharmacopoeia 2015, part 4, appendix 9103)
# Description: Hygroscopicity comparison study was carried out for various pharmaceutically acceptable salts of EGFR inhibitor present in the form of crystal in Examples 1 to 3 and 5 to 6, the amorphous EGFR inhibitor phosphate salt in Example 4, and the EGFR inhibitor present in a free base form. Tests were conducted according to the method in the Pharmacopoeia of the People's Republic of China, 2015 edition, part 4, appendix 9103 (temperature: 25° C.±1° C., relative humidity: 80%±2%), and the results were as shown in Table 6.
# With regard to the description of hygroscopic properties and definition of hygroscopic weight gain, refer to the Pharmacopoeia of the People's Republic of China, 2015 edition, part 4, appendix 9103, experimental guideline of drug hygroscopicity, herein descried by way of example as follows.
# Deliquescence: absorb enough water to form a liquid.
# Very hygroscopic: hygroscopic weight gain […] 15%.
# Hygroscopic: hygroscopic weight gain less than 15% but not less than 2%.
# Non- or almost non-hygroscopic: hygroscopic weight gain less than 0.2%.
# [2] = Solubility study in water (saturated solutions, HPLC linear equation; Pharmacopoeia and BCS classification)
# Text: (§1) Various pharmaceutically acceptable salts of EGFR inhibitor present in form of crystal in Examples 1 to 3 and 5 to 6 were classified with reference to the relevant requirements of the Pharmacopoeia of the People's Republic of China and the Bio-pharmaceutics Classification System (BCS).
# (§2) (a) Relevant Requirements of Solubility in the Pharmacopoeia of the People's Republic of China, 2015 Edition, General Notices:
# (§3) (b) Relevant Requirements of Solubility in BCS: Do=(Mo/Vo)/Cs;
# (§4) wherein Do: dose index; Mo: highest single dose of the drug (with reference to the relevant dose of osimertinib, tentatively set to 80 mg); Vo: the volume of body fluid required for dissolving the drug (about 250 ml); Cs: saturated solubility of the drug;
# (§5) if Do≤1, solubility is high; and if Do>1, solubility is low.
# (§6) Using an EGFR inhibitor free base as a control, linear regression was carried out by plotting peak area versus concentration, and the corresponding linear equation was obtained in the range of 0.025 to 1.5 mg/ml: A=19775.0411c+2.4256, r=1.0000.
# Water was used as solvent. An appropriate amount of the EGFR inhibitor mesylate salt, p-toluenesulfonate salt, phosphate salt, hydrochloride salt and citrate salt prepared in Examples 1 to 3 and 5 to 6 was weighed, and prepared into saturated solutions. Samples were taken after standing for 1 hour, 4 hours, and 24 hours, respectively, and the concentration of each sample in saturation state was calculated according to the linear equation.
# [3] = Solubility study in artificial gastric fluid (saturated solutions, HPLC linear equation; Pharmacopoeia and BCS classification)
# Text: as §1, §2, §3, §4, §5, §6
# Artificial gastric fluid was used as solvent. An appropriate amount of the EGFR inhibitor mesylate salt (crystal form A), p-toluenesulfonate salt (crystal form B), phosphate salt (crystal form C), phosphate salt (amorphous), hydrochloride salt (crystal form C), and citrate salt (crystal form E) prepared in Examples 1 to 6 was weighed, and prepared into saturated solutions. Samples were taken after standing for 1 hour, 4 hours, and 24 hours, respectively, and the concentration of each sample in saturation state was calculated according to the linear equation.
# [4] = One month accelerated stability study at 40° C./75% RH (shape, purity, XRPD)
# Description: The six pharmaceutically acceptable salts of EGFR inhibitor in Examples 1 to 6 were placed in a condition of 40° C./75% RH, and a one month accelerated stability study was carried out. Samples were taken at the end of 0 and 1 month respectively, and emphasis was placed upon the shape, purity and crystal form stability (XRPD pattern) of the samples.
# Stable refers to no occurrence of degradation and no detection of transformation to other crystal forms by analytical means such as chromatography and XRPD.
# [5] = Solubility study in water (saturated solutions, HPLC linear equation; Pharmacopoeia and BCS classification); conditions: in water and artificial gastric fluid
smiles,measurement,setting,value
C=CC(=O)Nc1cc(Nc2nccc(-c3cn(C)c4cccnc34)n2)c(OC)cc1N(C)CCN(C)C [phosphate salt (crystal form C)],Hygroscopicity as compared with that of the EGFR inhibitor present in a free base form,[1]; 25° C./RH 80%,higher hygroscopicity
same,Weight gain over 6 hours (%),"[1]; 25° C.±1° C., relative humidity 80%±2%, 6 hours",9.15%
same,Weight gain over 24 hours (%),"[1]; 25° C.±1° C., relative humidity 80%±2%, 24 hours",11.98%
same,Hygroscopicity,"[1]; 25° C.±1° C., relative humidity 80%±2%, Pharmacopoeia class",hygroscopic
same,Pharmacopoeia of the People's Republic of China Solubility level,[2],freely soluble
same,BCS level (Do),"[2]; Do=(Mo/Vo)/Cs, Mo 80 mg, Vo about 250 ml, Do≤1 solubility high, Do>1 low",0.0023 < 1
same,"Solubility in water, 1 h","[2]; saturated solution, standing 1 hour",107.15 mg/mL
same,"Solubility in water, 4 h","[2]; saturated solution, standing 4 hours",133.32 mg/mL
same,"Solubility in water, 24 h","[2]; saturated solution, standing 24 hours",137.13 mg/mL
same,Pharmacopoeia of the People's Republic of China Solubility level,[3]; artificial gastric fluid,freely soluble
same,Solubility in artificial gastric fluid compared with water,[3]; artificial gastric fluid versus water,higher solubility in artificial gastric fluid than in water
same,"Solubility in artificial gastric fluid, 1 h","[3]; artificial gastric fluid, saturated solution, standing 1 hour",156.70 mg/mL
same,"Solubility in artificial gastric fluid, 4 h","[3]; artificial gastric fluid, saturated solution, standing 4 hours",159.14 mg/mL
same,"Solubility in artificial gastric fluid, 24 h","[3]; artificial gastric fluid, saturated solution, standing 24 hours",147.08 mg/mL
same,BCS level (Do),"[3]; artificial gastric fluid, Do=(Mo/Vo)/Cs, Mo 80 mg, Vo about 250 ml, Do≤1 solubility high, Do>1 low",0.0022 < 1
same,Degradation in the solubility study,"[3]; water and artificial gastric fluid, up to 24 hours",no significant degradation
same,"Appearance, 1 month",[4]; after 1 month at 40° C./75% RH,tan solid
same,"Purity (%), 1 month",[4]; after 1 month at 40° C./75% RH,98.5%
same,XRPD pattern (0 month versus 1 month),[4]; after 1 month at 40° C./75% RH,consistent
same,"Appearance, 0 month",[4]; start of study (0 month),tan solid
same,"Purity (%), 0 month",[4]; start of study (0 month),98.5%
same,Solubility with reference to Pharmacopoeia solubility classification,[5],high

# Reference: patent publication US10759797B2, “Pharmaceutically acceptable salt of EGFR inhibitor, crystal form thereof, preparation method therefor and application thereof” (Wuxi Shuangliang Biotechnology Co., Ltd., priority 2017, dated 2020)
